# Target: T1, HCV RdRp (NS5B RNA-dependent RNA polymerase) (Hepatitis C virus genotype 1b, UniProt P26663)
# T1 construct: The HCV NS5B protein is the viral RdRp; made in house; host or cells: insect cells infected with recombinant baculovirus
# Assay: Inhibition of hepatitis C virus RdRp (poly(A)/oligo(U), [3H]UTP incorporation)
# Type: biochemical
# Conditions: Tables I-VIII; 20 nM NS5B, 1 hour at 22° C.; read-out: IC 50 (μM), HCV-polymerase
# Method: In initial tests, the compounds were tested to see if they were effective as inhibitors of the RNA-dependent RNA polymerase (RdRp) of hepatitis C virus (HCV). The HCV NS5B protein is the viral RdRp; compounds capable of interfering with the activity of this enzyme are thus expected to block viral replication.
# Test for Inhibition of Hepatatis C Virus RdRp
# WO96/37619 describes the production of recombinant HCV RdRp from insect cells infected with recombinant baculovirus encoding the enzyme. […] The reference describes a polymerisation assay using poly (A) as a template and oligo (U) as a primer. Incorporation of tritiated UTP is quantified by measuring acid-insoluble radioactivity. The present inventors have employed this assay to screen the various compounds described above as inhibitors of HCV RdRp and other virally encoded polymerases.
# Incorporation of radioactive UMP was measured as follows. The standard reaction (100 μl) was carried out in a buffer containing 20 mM tris/HCl pH 7.5, 5 mM MgCl2, 1 mM DTT, 50 mM NaCl, 1 mM EDTA, 2 OU Rnasin (Promega), 0.05% Triton X-100, 1 μCi[^3H] UTP (40 Ci/mmol,NEN), 10 μM UTP and 10 μg/ml poly (A). Oligo (U)12 (1 μg/ml, Genset) was added as a primer. The final NSSB enzyme concentration was 20 nM. After 1 hour incubation at 22° C. the reaction was stopped by adding 100 μl of 20% TCA and applying samples to DE81 filters. The filters were washed thoroughly with 5% TCA containing 1M Na2HPO4/NaH2PO4, pH 7.0, rinsed with water and then ethanol, air dried, and the filter-bound radioactivity was measured in the scintillation counter. By carrying out the reaction in the presence of various concentrations of each of the compounds set out above it was possible to determine IC50 values for each compound with the formula: % residual activity=100/(1+[I]/IC50)^s where [I] is the inhibitor concentration and “s” is the slope of the inhibition curve. Test for Inhibition of Hepatitis B Virus Polymerase
# T1 sequence (P26663 2420-3010): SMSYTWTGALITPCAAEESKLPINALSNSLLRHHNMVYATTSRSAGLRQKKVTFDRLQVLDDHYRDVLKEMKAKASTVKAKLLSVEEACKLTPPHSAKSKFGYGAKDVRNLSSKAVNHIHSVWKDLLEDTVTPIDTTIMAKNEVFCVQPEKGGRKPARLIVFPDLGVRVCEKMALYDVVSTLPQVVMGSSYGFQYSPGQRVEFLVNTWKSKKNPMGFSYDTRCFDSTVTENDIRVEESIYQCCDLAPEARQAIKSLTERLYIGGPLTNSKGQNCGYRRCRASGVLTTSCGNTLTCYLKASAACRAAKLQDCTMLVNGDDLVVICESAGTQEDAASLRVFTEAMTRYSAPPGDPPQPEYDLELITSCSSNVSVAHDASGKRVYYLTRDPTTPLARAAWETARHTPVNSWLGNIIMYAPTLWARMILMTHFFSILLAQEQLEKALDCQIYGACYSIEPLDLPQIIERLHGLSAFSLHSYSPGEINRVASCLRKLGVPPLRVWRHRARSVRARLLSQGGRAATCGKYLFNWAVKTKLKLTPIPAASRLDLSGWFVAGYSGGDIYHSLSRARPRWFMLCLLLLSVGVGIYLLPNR
row,SMILES,IC50 [µM]
1,Cc1ccccc1C(=O)C=C(O)C(=O)O [Example 2],3
2,O=C(O)C(O)=CC(=O)c1cccc(-c2ccccc2)c1 [Example 3],27.9
3,C=CCOc1cccc(C(=O)C=C(O)C(=O)O)c1 [Example 5],17
4,O=C(O)C(O)=CC(=O)c1ccccc1C(F)(F)F [Example 6],18
5,O=C(O)C(O)=CC(=O)c1ccccc1OCC1CCCCC1 [Example 9],51
6,O=C(O)C(O)=CC(=O)c1cccc(OCC2CCCCC2)c1 [Example 10],20
7,O=C(O)C(O)=CC(=O)c1cccc(OC2CCCCC2)c1 [Example 11],7.08
8,O=C(O)C(O)=CC(=O)c1cccc(NCc2ccccc2)c1 [Example 12],16.7
9,N#CCCCOc1cccc(C(=O)C=C(O)C(=O)O)c1 [Example 13],2.6
10,O=C(O)COc1cccc(C(=O)C=C(O)C(=O)O)c1 [Example 14],26
11,O=C(O)C(O)=CC(=O)c1cccc(N2CCCC2)c1 [Example 15],83.5
12,COc1ccccc1C(=O)C=C(O)C(=O)O [Example 17],11.6
13,O=C(O)C(O)=CC(=O)c1cccc(OCCCCn2c(C(F)(F)F)nc3ccccc32)c1 [Example 22],19
14,N#Cc1ccc(COc2ccccc2C(=O)C=C(O)C(=O)O)cc1 [Example 25],28
15,N#Cc1cccc(COc2ccccc2C(=O)C=C(O)C(=O)O)c1 [Example 26],26
16,N#Cc1cccc(COc2cccc(C(=O)C=C(O)C(=O)O)c2)c1 [Example 28],6.2
17,CCCOc1ccccc1C(=O)C=C(O)C(=O)O [Example 29],3.9
18,CCCCCCOc1cccc(C(=O)C=C(O)C(=O)O)c1 [Example 30],15
19,CCCCCCCOc1ccccc1C(=O)C=C(O)C(=O)O [Example 31],18
20,CC(C)COc1ccccc1C(=O)C=C(O)C(=O)O [Example 32],6.1
21,O=C(O)C(O)=CC(=O)c1ccccc1SC1CCCCC1 [Example 33],18.2

row,SMILES,IC50 [µM]
1,CCCSc1ccccc1C(=O)C=C(O)C(=O)O [Example 34],9.6
2,N#CCCCOc1ccc(OCCCC#N)c(C(=O)C=C(O)C(=O)O)c1 [Example 35],6.1
3,O=C(O)C(O)=CC(=O)c1ccccc1Oc1ccc(F)cc1 [Example 37],18
4,O=C(O)C(O)=CC(=O)c1ccccc1Oc1ccc(Cl)cc1 [Example 38],16
5,Cc1ccc(Oc2ccccc2C(=O)C=C(O)C(=O)O)cc1 [Example 39],22
6,O=C(O)C(O)=CC(=O)c1cccc(N(Cc2ccccc2)Cc2ccccc2)c1 [Example 41],28.9
7,O=C(O)C(O)=CC(=O)c1ccccc1N(Cc1ccccc1)Cc1ccccc1 [Example 42],16.6
8,O=C(O)C(O)=CC(=O)c1cccc(Cc2cccc(Cl)c2)c1 [Example 43],20
9,O=C(O)C(O)=CC(=O)c1cccc(Oc2ccccc2)c1 [Example 44],18.5
10,O=C(O)C(O)=CC(=O)c1cccc(Cc2ccc(Cl)cc2)c1 [Example 45],12.9
11,O=C(O)C(O)=CC(=O)c1cccc(Cc2ccc(F)cc2)c1 [Example 46],30.1
12,O=C(O)C(O)=CC(=O)c1cccc(C2=CCCc3ccccc32)c1 [Example 47],20.7
13,O=C(O)C(O)=CC(=O)c1cccc(Cc2cccc(Br)c2)c1 [Example 48],22
14,O=C(O)C(O)=CC(=O)c1cccc(Cc2cc(Br)cc(Br)c2)c1 [Example 49],32
15,C#CCCCOc1ccccc1C(=O)C=C(O)C(=O)O [Example 51],1.9
16,CCCCOc1ccccc1C(=O)C=C(O)C(=O)O [Example 52],10
17,N#CCCCOc1ccc(Br)cc1C(=O)C=C(O)C(=O)O [Example 54],2.3
18,O=C(O)C(O)=CC(=O)c1ccccc1/C=C/c1ccccc1 [Example 55],10.8
19,N#CCCCOc1ccc(C#CCCCCl)cc1C(=O)C=C(O)C(=O)O [Example 56],23.6
20,N#CCCCOc1ccc(/C=C/c2ccccc2)cc1C(=O)C=C(O)C(=O)O [Example 57],2.1

# Same assay, conditions: Tables IXa-IXc; unit inferred; read-out: HCV (IC50)
row,SMILES,IC50 [µM]
1,O=C(O)C(O)=CC(=O)c1cccc(Cc2cc(Br)cc(Br)c2)c1 [Example 49],32
